For this experiment, the system named is hepatocytes. In words: RNA-seq of hepatocytes treated with Phase III failure compounds. The procedure: RNA-seq was performed to determine the effects of the compounds on hepatocytes.
Significance was determined by the criteria of FPKM≥0.5, a log 2(fold-change)≥1, and a […].

With `Cn1c(COP(=O)(NCCBr)NCCBr)cnc1[N+](=O)[O-]` [TH-302 (Evofosfamide), Evofosfamide], the “Number (#) of genes having significantly changed expression” value stood at 28. The “significant modulation of expression of disease genes” value (RNA-seq, q≤0.05, hepatocytes, genes in the value or listed in the block) is “significantly (q≤0.05) modulate expression of the following genes: FAM111B, FGFR2, PKHD1, and RMRP”. For the setting “gene B2M, hepatocytes”, the “B2M expression, RNA-seq result” value is reported as 0.16. Besides, the “B9D2 expression, RNA-seq result” value (gene B9D2, hepatocytes) is reported as −0.2. Where the note is “gene BAAT, hepatocytes”, the “BAAT expression, RNA-seq result” value turned out to be 0.12. For the setting “gene BBOX1, hepatocytes”, the “BBOX1 expression, RNA-seq result” value is 0.35. For the same compound, the “BBS10 expression, RNA-seq result” value (gene BBS10, hepatocytes) is recorded as 0.24. Also, the “BCHE expression, RNA-seq result” value (gene BCHE, hepatocytes) is −0.07. Moreover, where the note is “gene BCKDHB, hepatocytes”, the “BCKDHB expression, RNA-seq result” value is −0.17. The “BCKDK expression, RNA-seq result” value (gene BCKDK, hepatocytes) is recorded as 0.04. Besides, the “BCO1 expression, RNA-seq result” value (gene BCO1, hepatocytes) was −0.28. For the same compound, the “BCR expression, RNA-seq result” value (gene BCR, hepatocytes) is given as −0.01. In addition, where the note is “gene BLNK, hepatocytes”, the “BLNK expression, RNA-seq result” value is listed as −0.2. In addition, the “BLOC1S3 expression, RNA-seq result” value (gene BLOC1S3, hepatocytes) worked out at 0.04. The “BMPR1A expression, RNA-seq result” value (gene BMPR1A, hepatocytes) was −0.05. Moreover, the “BRAF expression, RNA-seq result” value (gene BRAF, hepatocytes) is recorded as −0.01. The “BSCL2 expression, RNA-seq result” value (gene BSCL2, hepatocytes) is −0.03. The “BTD expression, RNA-seq result” value (gene BTD, hepatocytes) is reported as −0.16. Also, the “C4A expression, RNA-seq result” value (gene C4A, hepatocytes) is −0.36. In addition, under “gene C9, hepatocytes”, the “C9 expression, RNA-seq result” value came out at 0.16. Also, the “C10orf10 expression, RNA-seq result” value (gene C10orf10, hepatocytes) is −0.2. Moreover, the “C10orf11 expression, RNA-seq result” value (gene C10orf11, hepatocytes) is −0.71. In addition, the “C15orf41 expression, RNA-seq result” value (gene C15orf41, hepatocytes) was 0.08. Also, for the setting “gene CA2, hepatocytes”, the “CA2 expression, RNA-seq result” value is on record as 0.11. Also, the “CA5A expression, RNA-seq result” value (gene CA5A, hepatocytes) is given as −0.1. For the same compound, where the note is “gene CA12, hepatocytes”, the “CA12 expression, RNA-seq result” value came out at 0.32. Besides, the “CAV1 expression, RNA-seq result” value (gene CAV1, hepatocytes) was determined as 0.13. In addition, the “CCND1 expression, RNA-seq result” value (gene CCND1, hepatocytes) is 0.16. Also, for the setting “gene CD46, hepatocytes”, the “CD46 expression, RNA-seq result” value worked out at 0.08. The “CD81 expression, RNA-seq result” value (gene CD81, hepatocytes) worked out at 0.09. The “CD320 expression, RNA-seq result” value (gene CD320, hepatocytes) was 0.17. In addition, the “CDAN1 expression, RNA-seq result” value (gene CDAN1, hepatocytes) came out at 0.11. Besides, the “CDH1 expression, RNA-seq result” value (gene CDH1, hepatocytes) is listed as −0.56. Further, the “CEP19 expression, RNA-seq result” value (gene CEP19, hepatocytes) was −0.02. Also, the “CEP83 expression, RNA-seq result” value (gene CEP83, hepatocytes) is given as −0.06. Moreover, the “CEP164 expression, RNA-seq result” value (gene CEP164, hepatocytes) is on record as −0.03. The “CEP290 expression, RNA-seq result” value (gene CEP290, hepatocytes) was 0.16. Moreover, under “gene CFB, hepatocytes”, the “CFB expression, RNA-seq result” value is listed as 0.01. Further, for the setting “gene CFHR2, hepatocytes”, the “CFHR2 expression, RNA-seq result” value is recorded as 0.13. Besides, for the setting “gene CHRM3, hepatocytes”, the “CHRM3 expression, RNA-seq result” value is −0.58. Further, the “CIDEC expression, RNA-seq result” value (gene CIDEC, hepatocytes) is −0.06. The “CLDN1 expression, RNA-seq result” value (gene CLDN1, hepatocytes) is listed as −0.05. For the same compound, the “COG1 expression, RNA-seq result” value (gene COG1, hepatocytes) was 0.12.
For the compound `CC1(C)CC[C@]2(C(=O)O)CC[C@]3(C)[C@H](C(=O)C=C4[C@@]5(C)C=C(C#N)C(=O)C(C)(C)[C@@H]5CC[C@]43C)[C@@H]2C1` [Bardoxolone], for the setting “RNA-seq, p≤0.05, hepatocytes”, the “significant modulation of expression of any of the genes analyzed” value is recorded as “not observed to significantly modulate expression”.
